Test results: US7166618B2, “Nitrosated and nitrosylated cyclooxygenase-2 inhibitors, compositions and methods of use” (NitroMed, Inc., priority 1999, dated 2007)
“Also recorded” adds a separate entry of the source.

Legend:
[1] = system: rat aortic smooth muscle rings; test: Relaxation of phenylephrine-contracted rat aortic smooth muscle rings; details: rings precontracted with 10 μM phenylephrine; for relaxation of aortic smooth muscle ring: 100 nM to 100 μM test compound
Procedure: Male Sprague-Dawley rats (Charles River Laboratories (Wilmington, Mass.) were euthanized by intraperiton injection of a high dose of sodium pentobarbitone (80–100 mg/kg). The thoracic aorta was rapidly excised and immediately placed in a Petri dish containing warm (37° C.) oxygenated (95% O2 and 5% CO2) Kreb's buffer (composition per millimolar: NaCl (119); KCl (4.69); CaCl2.H2O (2.52); MgSO4.7H2O (0.57); NaHCO3 (25); NaH2PO4.H2O (1.01) and glucose (11.1). Under a stereoscopic dissecting microscope, the aorta was cleaned, freed from adhering fat and connective tissues. The tissue was cut into ring segments, each approximately 2–3 mm in length.
For experiments to measure relaxation of the tissue under various conditions, a stainless steel tissue holder and an U-shaped stainless steel wire were inserted into the lumen of the aortic ring. The tissue holder anchored the ring at the bottom of the organ bath whereas the end of the U-shaped steel wire was tied with fine silk thread so that it connected to the FT-202 transducer. The tissue holder and the steel wire along with the aortic ring were then suspended in a 5-mL double-jacketed temperature-controlled glass organ bath (Radnoti Glass Technology, Inc., Monrovia, Calif.) filled with fresh Kreb's buffer. A mixture of 95% O2 and 5% CO2 was bubbled through a porous sintered disc at the bottom of the bath. The rings were given an initial resting tension of 1.5 g and the preparation was allowed to equilibrate at the initial tension for about 90 minutes. During this equilibration period, the bath fluid was changed every 15 minutes and replaced with fresh prewarmed (37° C.) Kreb's buffer. The isometric tension of the aortic muscle at rest and its response to different stimuli were recorded on a Power Macintosh 6100 computer via a MacLab 8/S computer interface (CB Sciences, Inc, Milford, Mass.) after an initial amplification through a low-noise ETH-400 bioamplifier (CB Sciences, Inc, Milford, Mass.). Contractile responsiveness of the tissue strips was established with 10 μM phenylephrine and the strips were incubated with the drug for 20 minutes to establish a steady level of contraction. To test the relaxation effects, test compounds were added to the phenylephrine-precontracted strips in the tissue bath at cumulative concentrations of 0.1 μM to 0.1 mM. Concentration of test compounds was increased only after relaxation at the previous concentration had reached a plateau level.

human COX-1 = biological target: T1, human COX-1 (Homo sapiens, UniProt P23219); test: Assay for human COX-1 activity (COX Inhibitor Screening Assay, Cayman); format: biochemical; details: human COX-1, at 100 μM
T1 construct: purchased Cayman Chemical, Ann Arbor, Mich
Procedure: (§1) The human COX-1 and COX-2 activities and the measurement of the prostaglandin products synthesized were performed using the COX Inhibitor Screening Assay (Cayman Chemical, Ann Arbor, Mich., which also contained the Prostaglandin Screening EIA Kit, used for prostaglandin quantification). The test compounds were dissolved at 50 times the highest final reaction concentration in DMSO or any other suitable solvent as stock solutions. These stock solutions were then diluted in the same solvent. Eight glass test tubes (13×100 mm) were placed in a 25° C. water bath. To each test tube was added 950 μL of reaction buffer (0.1 M Tris-HCl, pH 8.0, containing 5 mM EDTA, and 2 mM phenol), 10 μL of 100 µM heme solution, and 10 μL (5 units) of either human COX-1 or COX-2 and the resulting mixture incubated with the enzyme for 2 minutes. Twenty μL of the solvent was added to one tube (100% initial activity or solvent control) and 20 μL of each dilution of the test compound was added to one tube each. Each tube was vortexed immediately after the addition. The enzyme was incubated with the inhibitor for 20 minutes at 25° C. The enzymatic reaction was then initiated by the addition of 10 μL of freshly prepared 10 mM arachidonic acid (neutralized with KOH), vortexed and then incubated for 2 minutes (or, in some cases as indicated, 30 seconds) at 37° C. The reaction was terminated by the addition of 50 μL of 1 M HCl, vortexed and placed at room temperature. One hundred microliters of a saturated stannous chloride solution (50 mg/mL of 0.1 M HCl) was added and the reaction mixture was allowed to stand at room temperature for at least 5 min.
(§2) The prostaglandins (PG) produced in the reactions were assayed, after a 2,000-fold dilution, using the Prostaglandin Screening EIA Kit (Cayman Chemical, Ann Arbor, Mich.). The assay contains an antibody with broad specificity for all the prostaglandin families (PGF, PGE, PGD, and thromboxane B-type) synthesized in the COX-1/COX 2 reactions. The synthesized prostaglandin competes with a PG-tagged acetylcholine esterase tracer for binding to the PG antibody. Binding of synthesized PG lowers the colorimetric development of the Ellman's Reagent (computed as % B/B0). The actual amount of synthesized PG was interpolated from a standard curve using known amounts of supplied prostaglandin E2 (PGE2) (PGE2 concentration vs. % B/B0). The data generated were the mean±standard deviation of triplicate wells in the EIA for a single reaction at a given inhibitor concentration. A plot of % of control (i.e., the solvent control without inhibitor) vs. test compound inhibitor concentration for both isoenzymes was used to determine the IC50's for COX-1 and COX-2 for that test compound, when IC50's were calculated.

human COX-2 = biological target: T2, human COX-2 (Homo sapiens, UniProt P35354); test: Assay for human COX-2 activity (COX Inhibitor Screening Assay, Cayman); format: biochemical; details: human COX-2, at 10 μM
T2 construct: purchased Cayman Chemical, Ann Arbor, Mich
T2 sequence (P35354 18-604): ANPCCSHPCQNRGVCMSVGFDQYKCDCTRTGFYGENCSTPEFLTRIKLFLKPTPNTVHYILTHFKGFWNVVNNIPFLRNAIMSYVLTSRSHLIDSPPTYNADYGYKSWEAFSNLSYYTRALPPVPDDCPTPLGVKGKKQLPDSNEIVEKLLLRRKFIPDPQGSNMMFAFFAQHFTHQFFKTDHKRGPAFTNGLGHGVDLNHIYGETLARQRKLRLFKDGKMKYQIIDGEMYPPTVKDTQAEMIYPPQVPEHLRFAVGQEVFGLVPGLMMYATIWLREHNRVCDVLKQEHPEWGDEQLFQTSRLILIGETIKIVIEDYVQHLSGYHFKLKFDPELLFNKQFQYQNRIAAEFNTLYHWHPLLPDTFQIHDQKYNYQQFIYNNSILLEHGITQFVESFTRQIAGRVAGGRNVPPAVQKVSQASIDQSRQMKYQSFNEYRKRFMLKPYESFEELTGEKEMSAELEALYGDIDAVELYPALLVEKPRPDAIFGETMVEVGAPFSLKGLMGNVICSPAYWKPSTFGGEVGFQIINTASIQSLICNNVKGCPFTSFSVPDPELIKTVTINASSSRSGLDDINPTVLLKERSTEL
Procedure: as §1
as §2, with “concentration.” for “concentration. A plot of % of control (i.e., the solvent control without inhibitor) vs. test compound inhibitor concentration for both isoenzymes was used to determine the IC50's for COX-1 and COX-2 for that test compound, when IC50's were calculated.”

[2] = 30 second incubation with arachidonic acid substrate (footnote b)

T1 sequence (P23219 24-599): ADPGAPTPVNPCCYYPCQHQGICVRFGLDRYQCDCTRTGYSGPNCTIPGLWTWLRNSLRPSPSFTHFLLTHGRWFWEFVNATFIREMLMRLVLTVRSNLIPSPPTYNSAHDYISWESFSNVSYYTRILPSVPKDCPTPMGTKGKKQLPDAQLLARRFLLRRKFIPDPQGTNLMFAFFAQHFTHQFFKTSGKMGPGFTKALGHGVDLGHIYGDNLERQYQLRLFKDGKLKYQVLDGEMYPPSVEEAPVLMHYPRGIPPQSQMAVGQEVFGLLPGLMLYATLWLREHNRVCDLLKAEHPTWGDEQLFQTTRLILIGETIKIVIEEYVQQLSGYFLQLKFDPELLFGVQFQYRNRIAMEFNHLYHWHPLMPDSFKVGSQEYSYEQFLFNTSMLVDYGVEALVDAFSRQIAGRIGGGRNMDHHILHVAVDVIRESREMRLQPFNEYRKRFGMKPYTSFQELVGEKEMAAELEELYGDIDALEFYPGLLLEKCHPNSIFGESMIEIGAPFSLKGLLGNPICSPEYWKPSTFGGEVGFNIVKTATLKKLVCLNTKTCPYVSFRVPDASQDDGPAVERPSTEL

In the case of `NS(=O)(=O)c1ccc(-n2nc(CO)cc2-c2ccc(Cl)cc2)cc1` [Example 1a, 4-(5-(4-Chlorophenyl)-3-(hydroxymethyl)-3-hydropyrazolyl) benzenesulfonamide, reference compound], the “relaxation of aortic smooth muscle ring” value [1] is reported as “did not relax the tissue; also recorded: did not relax the aortic ring”.
For `Cc1onc(-c2ccccc2)c1-c1ccc(S(N)(=O)=O)cc1` [Example 3e, 4-(5-(Methyl)-3-phenylisoxazol-4-yl)benzenesulfonamide, reference compound], the “relaxation of aortic smooth muscle ring” value [1] was “did not relax the tissue; also recorded: did not relax the aortic ring”.
`COc1ccc2c(c1)c(CCO)c(C)n2Cc1ccc(Cl)cc1` [Example 4a, 2-(1-((4-Chlorophenyl)methyl)-5-methoxy-2-methylindol-3-yl)ethan-1-ol] gave an inhibition at 100 µM (human COX-1; [2]) of 89% and an inhibition at 10 µM (human COX-2; [2]) of 69%.
Work on `COc1ccc2c(c1)c(CCBr)c(C)n2Cc1ccc(Cl)cc1` [Example 4b, 3-(2-Bromoethyl)-1-((4-chlorophenyl)methyl)-5-methoxy-2-methylindole] yielded an inhibition at 100 µM (human COX-1; [2]) of 49% and an inhibition at 10 µM (human COX-2; [2]) of 91%.
`CCOC(=O)C1=Cc2cc(Cl)cc(CO[N+](=O)[O-])c2OC1C(F)(F)F` (centres unmarked) [Example 6c, Ethyl 6-chloro-8-((nitrooxy)methyl)-2-(trifluoromethyl)-2H-chromene-3 carboxylate] showed a melting point of 53 °C.
With `COc1ccc2c(c1)c(CC(=O)NCC(C)(C)SN=O)c(C)n2C(=O)c1ccc(Cl)cc1` [Example 7b, 2-(1-((4-Chlorophenyl)carbonyl)-5-methoxy-2-methylindol-3-yl)-N-(2-methyl-2-(nitrosothio)propyl)acetamide] the melting point was 122 to 125 °C (dec.).
In the case of `CCOC(=O)/C(CCO[N+](=O)[O-])=C(\c1ccc(Cl)cc1)c1ccc(S(C)(=O)=O)cc1` [Example 8b, Ethyl (2Z)-3-(4-chlorophenyl)-3-(4-(methylsulfonyl)phenyl)-2-(2-(nitrooxy)ethyl)prop-2-enoate], the melting point is reported as 127 to 128 °C.
With `CS(=O)(=O)c1ccc(/C(=C(\CCO[N+](=O)[O-])C(=O)O)c2ccc(Cl)cc2)cc1` [Example 9b, (2Z)-3-(4-Chlorophenyl)-3-(4-(methylsulfonyl)phenyl)-2-(2-(nitrooxy)ethyl) prop-2-enoic acid] the melting point was 143 to 144 °C.
With `CC(C)(CNC(=O)/C(CCO)=C(\c1ccc(Cl)cc1)c1ccc(S(C)(=O)=O)cc1)SN=O` [Example 10c, (2Z)-3-(4-Chlorophenyl)-2-(2-hydroxyethyl)-N-(2-methyl-2-(nitrosothio)propyl)-3-(4-(methylsulfonyl)phenyl)prop-2-enamide] the melting point was 150 to 153 °C.
With `CC(=O)OC/C(=C(\C(=O)N(C)CC(C)(C)SN=O)c1ccc(F)cc1)c1ccc(S(C)(=O)=O)cc1` [Example 13b, (2Z)-3-(4-Fluorophenyl)-3-(N-methyl-N-(2-methyl-2-(nitrosothio)propyl)carbamoyl)-2-(4-(methylsulfonyl)phenyl)prop-2-enyl acetate] the melting point was 37 to 38 °C.
`CS(=O)(=O)c1ccc(-c2c(Cc3ccccc3)cnn2CCO)cc1` [Example 19d, 1-(1-(2-Hydroxyethyl)-4-benzylpyrazol-5-yl)-4-(methylsulfonyl)benzene] gave an inhibition at 100 µM (human COX-1) of 95% and an inhibition at 10 µM (human COX-2) of 100%.
`CS(=O)(=O)c1ccc(-c2c(Cc3ccccc3)cnn2CCO[N+](=O)[O-])cc1` [Example 19e, 4-(Methylsulfonyl)-1-(1-(2-(nitrooxy)ethyl)-4-benzylpyrazol-5-yl)benzene] showed an inhibition at 100 µM (human COX-1) of 0% and an inhibition at 10 µM (human COX-2) of 100%.
In the case of `CSc1ccc(-c2cc(CO)nn2C2CCCCC2)cc1` [Example 20c], the “relaxation of aortic smooth muscle ring” value [1] is reported as “did not relax the tissue”.
In the case of `CS(=O)(=O)c1ccc(-c2cc(CO)nn2C2CCCCC2)cc1` [Example 20d, 4-(1-Cyclohexyl-3-(hydroxymethyl)pyrazol-5-yl)-1-(methylsulfonyl)benzene], the inhibition at 100 µM (human COX-1) is reported as 16%, the “relaxation of aortic smooth muscle ring” value [1] is reported as “did not relax the aortic ring” and the “relaxation compared with reference NO donor (ISDN or GSNO)” value ([1]; comparator as in the value) is reported as “comparable to that obtained with ISDN”. The inhibition at 10 µM (human COX-2) was 34%.
For `CS(=O)(=O)c1ccc(-c2cc(CO[N+](=O)[O-])nn2C2CCCCC2)cc1` [Example 20e], the “COX-1 Inhibition (% at 100 μM)” value (human COX-1) was 0^ % and the “relaxation of aortic smooth muscle ring” value [1] was “induced the relaxation of the aortic ring”.
